# Legend:
# HL-60 [1] = experiment: Induction of apoptosis in human HL-60 cells assessed as early apoptotic cells at 2 uM incubated for 24 hrs by propidium iodide and annexin-V FITC staining based FACS analysis (reference value: 2.8 %); type: functional
# HL-60 [2] = experiment: Induction of apoptosis in human HL-60 cells assessed as necrotic cells at 2 uM incubated for 24 hrs by propidium iodide and annexin-V FITC staining based FACS analysis (reference value: 0.3 %); type: functional
# HL-60 [3] = experiment: Induction of apoptosis in human HL-60 cells assessed as necrotic cells at 1 uM incubated for 24 hrs by propidium iodide and annexin-V FITC staining based FACS analysis (reference value: 0.5 %); type: functional
# [4] = Toxicity in mouse LL/2 cells inoculated C57BL/6J mouse assessed as effect on body weight by measuring initial body weight at 100 mg/kg, ip administered for 12 days and measured for every 2 days (reference value: 18.6 +/- 0.8 g); type: organism-based; conditions: in vivo, 288 h, time 12 day
smiles,measurement,setting,value
O=C(CCNC(=O)/C(Cc1ccc(O)c(Br)c1)=N/O)NO,Activity,HL-60 [1],7.3%
same,Activity,HL-60 [2],0.8%
O=C(NCCSSCCNC(=O)/C(Cc1ccc(O)c(Br)c1)=N/O)/C(Cc1ccc(O)c(Br)c1)=N/O [PSAMMAPLIN A],Activity,HL-60 [3],0.8%
O=C(NCCS)/C(Cc1ccc(O)c(Br)c1)=N/O,Activity,[4],18.6 g
